According to patent US12527789B2, “Inhibition of a tripartite VOR protein complex in multicellular organisms” (TECHNISCHE UNIVERSITÄT DRESDEN, priority 2018, dated 2026):

Test system: nuclear pores and importin β1
Assay: NEI-associated late endosomes and transfer of EV-derived components into the nucleoplasm after importazole treatment
Assay type: cell-based
Description: Referring to FIGS. 1A, 1B and 1C, illustrated are schematic illustrations of data showing the localization and the tripartite structure of a VOR complex. […] Typically, EVs are transported to late endosomes after their endocytosis, wherein the EVs facilitate intercellular communication in diverse cellular processes.

CC(Nc1nc(N2CCCC2)nc2ccccc12)c1ccccc1 (centres unmarked) [importazole]
transfer of EV-derived components into the nucleoplasm of host cells: inhibition of transfer of EV-derived components into the nucleoplasm of host cells
presence of nuclear envelope invagination (NEI)-associated late endosomes (host cells after importazole treatment): lack of the nuclear envelope invagination (NEI)-associated late endosomes
